Source: patent US12269827B1, “Substituted pyrazino[1′,2′:1,5]pyrazolo[4,3-c][1,6]naphthyridines as CK2 inhibitors” (KING FAISAL UNIVERSITY, priority 2023, dated 2025)

Assays:
[1] = system: PC3 (prostate); experiment: In vitro cytotoxic activity MTT assay, PC3; type: cell-based; conditions: Homo sapiens, Prostate cell; PC3 (prostate) cells, exposed for 96 hours; read-out: Cytotoxicity activity IC50 (50% inhibition of cell proliferation)
Method: (§1) Compounds 1-16 were screened for their in vitro cytotoxic activity utilizing a 3-(4,5-dimethyl-thiazol-2-yl)-2,5-diphenyltetrazolium bromide (MTT) assay against selected cancer human cell lines consisting of PC3 (prostate), HCT116 (colon), A375 (melanoma), H1299 (lung), MIAPaCa-2 (pancreas), HL60 (leukemia), MCF7 (breast), MDA-MB-231 (breast) (T. Mosmann, J. Immunol. Meth., 1983, 65, 55-63). The cells were cultured at 37° C. in RMPI1640 medium supplemented with 10% fetal bovine serum, 50 IU/mL penicillin, and 50 µg/mL streptomycin in a 5% CO2 incubator. All cells were sub-cultured 3 times/week by trypsinisation. Viable cells were seeded and allowed to adhere for 12 hours before a test drug was added in 96-well plates at an initial density of 1.0×10^5 cells/mL. Tumor cell lines were separately exposed to various concentrations of the tested compounds followed by incubation at a temperature of 37° C. during 96 hours inside a medium of fresh RMPI 1640. Cells were subsequently incubated at 37° C. using MTT at 0.5 mg/mL during 4 hours. After removal of supernatant, formazan crystals were dissolved in isopropanol and the optical density was measured at 570 nm. CX-4945 was used as a positive control.

[2] = system: HCT116 (colon); experiment: In vitro cytotoxic activity MTT assay, HCT116; type: cell-based; conditions: Homo sapiens, HCT-116; HCT116 (colon) cells, exposed for 96 hours; read-out: Cytotoxicity activity IC50 (50% inhibition of cell proliferation)
Method: as §1

[3] = system: A375 (melanoma); experiment: In vitro cytotoxic activity MTT assay, A375; type: cell-based; conditions: Homo sapiens, A-375; A375 (melanoma) cells, exposed for 96 hours; read-out: Cytotoxicity activity IC50 (50% inhibition of cell proliferation)
Method: as §1

[4] = system: H1299 (lung); experiment: In vitro cytotoxic activity MTT assay, H1299; type: cell-based; conditions: Homo sapiens, NCI-H1299; H1299 (lung) cells, exposed for 96 hours; read-out: Cytotoxicity activity IC50 (50% inhibition of cell proliferation)
Method: as §1

[5] = system: MIAPaCa-2 (pancreas); experiment: In vitro cytotoxic activity MTT assay, MIAPaCa-2; type: cell-based; conditions: Homo sapiens, MIA PaCa-2; MIAPaCa-2 (pancreas) cells, exposed for 96 hours; read-out: Cytotoxicity activity IC50 (50% inhibition of cell proliferation)
Method: as §1

[6] = system: HL60 (leukemia); experiment: In vitro cytotoxic activity MTT assay, HL60; type: cell-based; conditions: Homo sapiens, HL-60; HL60 (leukemia) cells, exposed for 96 hours; read-out: Cytotoxicity activity IC50 (50% inhibition of cell proliferation)
Method: as §1

[7] = system: MCF7 (breast); experiment: In vitro cytotoxic activity MTT assay, MCF7; type: cell-based; conditions: Homo sapiens; MCF7 (breast) cells, exposed for 96 hours; read-out: Cytotoxicity activity IC50 (50% inhibition of cell proliferation)
Method: as §1

[8] = system: MDA-MB-231 (breast); experiment: In vitro cytotoxic activity MTT assay, MDA-MB-231; type: cell-based; conditions: Homo sapiens; MDA-MB-231 (breast) cells, exposed for 96 hours; read-out: Cytotoxicity activity IC50 (50% inhibition of cell proliferation)
Method: as §1

[9] = target: T1, recombinant human CK2 (RRββ-holoenzyme) (Homo sapiens, UniProt P68400); experiment: CK2 Kinase Assay (33P-ATP, substrate peptide RRRDDDSDDD); type: biochemical; conditions: final ATP concentration 15 μM, 10 minutes at 30° C.; read-out: protein kinase CK2 IC50
T1 construct: purchased Millipore
Method: CK2 Kinase Assay was conducted using the protocol as described in Pierre F. et al; J. Med. Chem. 2011, 54, 635-654. The tested compounds in aqueous solution were added at a volume of 10 μL to a reaction mixture comprising 10 μL of assay dilution buffer (ADB; 20 mM MOPS, pH 7.2, 25 mM β-glycerol phosphate, 5 mM EGTA, 1 mM sodium orthovanadate, and 1 mM dithiothreitol), 10 μL of substrate peptide (RRRDDDSDDD, dissolved in ADB at a concentration of 1 mM), 10 μL of recombinant human CK2 (RRββ-holoenzyme, 25 ng dissolved in ADB; Millipore). Reactions were initiated by the addition of 10 μL of ATP solution (90% 75 mMMgCl2, 75 μM ATP (final ATP concentration:15 μM) dissolved in ADB; 10% [γ-33P] ATP (stock 1 mCi/100 μL; 3000 Ci/mmol (Perkin-Elmer) and maintained for 10 minutes at 30° C. The reactions were quenched with 100 μL of 0.75% phosphoric acid and then transferred to and filtered through a phosphor cellulose filter plate (Millipore). After washing each well five times with 0.75% phosphoric acid, the plate was dried under vacuum for 5 min and, following the addition of 15 μL of scintillation fluid to each well, the residual radioactivity was measured using a Wallac […]. The IC50 values were derived from eight concentrations of test inhibitors.

T1 sequence (P68400 whole entry): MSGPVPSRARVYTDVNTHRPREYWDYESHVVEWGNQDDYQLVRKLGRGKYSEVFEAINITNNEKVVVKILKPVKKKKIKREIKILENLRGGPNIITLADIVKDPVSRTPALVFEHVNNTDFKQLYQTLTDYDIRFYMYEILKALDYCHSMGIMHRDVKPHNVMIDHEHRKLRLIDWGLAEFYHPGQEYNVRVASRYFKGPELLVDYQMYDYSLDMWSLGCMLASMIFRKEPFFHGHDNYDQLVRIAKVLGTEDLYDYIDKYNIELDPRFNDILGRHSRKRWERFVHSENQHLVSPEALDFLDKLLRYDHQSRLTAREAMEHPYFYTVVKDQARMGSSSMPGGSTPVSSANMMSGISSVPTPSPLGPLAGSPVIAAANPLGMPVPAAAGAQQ
T1 sequence (P67870 whole entry partner): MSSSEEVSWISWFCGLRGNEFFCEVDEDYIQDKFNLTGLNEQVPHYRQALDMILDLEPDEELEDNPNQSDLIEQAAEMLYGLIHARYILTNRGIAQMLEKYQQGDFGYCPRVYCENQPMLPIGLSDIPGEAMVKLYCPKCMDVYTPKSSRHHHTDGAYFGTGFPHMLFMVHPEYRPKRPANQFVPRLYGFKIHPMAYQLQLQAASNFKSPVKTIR

IC50 [9]: 38 nM
SMILES: Clc1cccc(Nc2nc3ccncc3c3nn4ccncc4c23)c1 [Compound 1, N-(3-chlorophenyl)pyrazino[1′,2′:1,5]pyrazolo[4,3-c][1,6]naphthyridin-6-amine]
IC50 [1]: 1300 nM | IC50 [2]: 1800 nM | IC50 [3]: 3700 nM | IC50 [4]: 1500 nM | IC50 [5]: 1200 nM | IC50 [6]: 4400 nM | IC50 [7]: 5700 nM | IC50 [8]: 4600 nM
